The experiment addresses T1, SMARCA2 (Homo sapiens, UniProt P51531).
T1 construct: endogenous in cells; host or cells: HT1080 (CRISPR HiBiT knock-in clone, generated in house)
Description: SMARCA2 HiBiT degradation assay (cellular). It counts as cell-based. The conditions noted are these: table head names A549; for DC50: 6 h incubation, HiBiT-tagged SMARCA2, luminescence read-out, read-out: HiBit A549 SMARCA2 IP (nM) 6 h; for Emax: A549, 6 h incubation, Emax = amount of residual protein remaining in the cell following compound treatment. On the technique in general: HiBiT is a short tag that completes a luciferase, so light tracks the accessible tagged protein.

As a reminder, the Emax is the greatest response seen or fitted, relative to the assay's reference.

T1 sequence (P51531 whole entry): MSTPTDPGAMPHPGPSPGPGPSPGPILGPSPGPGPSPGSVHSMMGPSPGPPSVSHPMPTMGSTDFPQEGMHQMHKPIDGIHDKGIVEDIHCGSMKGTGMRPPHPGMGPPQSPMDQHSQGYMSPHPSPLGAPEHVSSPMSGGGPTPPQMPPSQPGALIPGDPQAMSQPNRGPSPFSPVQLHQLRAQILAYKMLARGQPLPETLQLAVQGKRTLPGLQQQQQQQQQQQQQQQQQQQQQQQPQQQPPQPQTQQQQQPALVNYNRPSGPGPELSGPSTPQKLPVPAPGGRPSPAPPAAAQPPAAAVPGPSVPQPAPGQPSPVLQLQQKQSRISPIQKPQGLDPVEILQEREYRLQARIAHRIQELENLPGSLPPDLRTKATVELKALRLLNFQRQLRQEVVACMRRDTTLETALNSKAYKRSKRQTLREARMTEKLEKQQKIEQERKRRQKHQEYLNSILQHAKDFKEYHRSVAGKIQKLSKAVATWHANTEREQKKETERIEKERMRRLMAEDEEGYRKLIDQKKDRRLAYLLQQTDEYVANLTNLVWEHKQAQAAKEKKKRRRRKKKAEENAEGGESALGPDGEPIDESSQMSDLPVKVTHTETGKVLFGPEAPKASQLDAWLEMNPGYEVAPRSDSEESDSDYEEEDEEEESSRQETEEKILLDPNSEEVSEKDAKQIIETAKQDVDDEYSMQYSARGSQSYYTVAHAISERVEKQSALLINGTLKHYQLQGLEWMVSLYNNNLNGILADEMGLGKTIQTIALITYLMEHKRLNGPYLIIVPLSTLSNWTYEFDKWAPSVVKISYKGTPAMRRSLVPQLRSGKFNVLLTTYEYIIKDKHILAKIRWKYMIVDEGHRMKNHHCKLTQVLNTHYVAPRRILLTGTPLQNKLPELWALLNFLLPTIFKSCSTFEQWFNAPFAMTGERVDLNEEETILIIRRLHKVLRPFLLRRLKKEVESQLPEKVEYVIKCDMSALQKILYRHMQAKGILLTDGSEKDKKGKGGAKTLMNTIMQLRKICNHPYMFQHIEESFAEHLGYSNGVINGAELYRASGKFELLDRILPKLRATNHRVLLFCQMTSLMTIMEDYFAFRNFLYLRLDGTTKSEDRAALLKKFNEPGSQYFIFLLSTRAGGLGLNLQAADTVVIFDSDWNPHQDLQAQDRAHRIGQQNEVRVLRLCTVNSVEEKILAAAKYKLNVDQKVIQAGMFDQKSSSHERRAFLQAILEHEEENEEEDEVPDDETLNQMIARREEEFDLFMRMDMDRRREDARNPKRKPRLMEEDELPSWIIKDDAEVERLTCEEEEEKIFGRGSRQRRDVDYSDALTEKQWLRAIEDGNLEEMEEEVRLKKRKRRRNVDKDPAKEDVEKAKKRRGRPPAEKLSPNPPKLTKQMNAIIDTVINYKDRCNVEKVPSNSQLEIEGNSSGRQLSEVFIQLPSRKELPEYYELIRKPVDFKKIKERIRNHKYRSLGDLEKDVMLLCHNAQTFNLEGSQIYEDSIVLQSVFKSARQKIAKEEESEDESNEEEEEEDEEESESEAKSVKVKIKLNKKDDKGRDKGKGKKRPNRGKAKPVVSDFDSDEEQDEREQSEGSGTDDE

`Nc1nnc(-c2ccccc2O)cc1N1CC2CCC(C1)N2c1cccc(CN2CCC(C(=O)NC3CCN(c4ccc5c(c4)C(=O)N(C4CCC(=O)NC4=O)C5=O)CC3)CC2)c1` (racemic) [Example 106, rac-1-[[3-[3-[3-amino-6-(2-hydroxyphenyl)pyridazin-4-yl]-3,8-diazabicyclo[3.2.1]octan-8-yl]phenyl]methyl]-N-[1-[2-(2,6-dioxo-3-piperidyl)-1,3-dioxo-isoindolin-5-yl]-4-piperidyl]piperidine-4-carboxamide]: the DC50 was 23 nM and the Emax stood at 26%.
Regarding `Nc1nnc(-c2ccccc2O)cc1N1CC2CCC(C1)N2c1cccc(CN2CCN(C(=O)C3CCN(c4ccc5c(c4)C(=O)N(C4CCC(=O)NC4=O)C5=O)CC3)CC2)n1` (racemic) [Example 131, rac-5-[4-[4-[[6-[3-[3-amino-6-(2-hydroxyphenyl)pyridazin-4-yl]-3,8-diazabicyclo[3.2.1]octan-8-yl]-2-pyridyl]methyl]piperazine-1-carbonyl]-1-piperidyl]-2-(2,6-dioxo-3-piperidyl)isoindoline-1,3-dione], the DC50 is 27 nM and the maximal response (Emax) was found to be 32%.
The like results for `Nc1nnc(-c2ccccc2O)cc1OC1CCCN(c2ccc(N3CCN(C(=O)CCCCCCCCCCn4cc(CNc5cccc6c5C(=O)N(C5CCC(=O)NC5=O)C6=O)nn4)CC3)cc2)C1` (centres unmarked) [Example 29, 4-[[1-[11-[4-[4-[3-[3-amino-6-(2-hydroxyphenyl)pyridazin-4-yl]oxy-1-piperidyl]phenyl]piperazin-1-yl]-11-oxo-undecyl]triazol-4-yl]methylamino]-2-(2,6-dioxo-3-piperidyl)isoindoline-1,3-dione] were, in that order, 158 nM and 50%.
Turning to `Nc1nnc(-c2ccccc2O)cc1N1CCC(C(=O)N2CC3(CCN(CC4CCN(c5ccc6c(c5)C(=O)N(C5CCC(=O)NC5=O)C6=O)CC4)C3)C2)(c2ccccc2)CC1` (centres unmarked) [Example 190, 5-(4-((2-(1-(3-amino-6-(2-hydroxyphenyl)pyridazin-4-yl)-4-phenylpiperidine-4-carbonyl)-2,6-diazaspiro[3.4]octan-6-yl)methyl)piperidin-1-yl)-2-(2,6-dioxopiperidin-3-yl)isoindoline-1,3-dione], the DC50 is 22 nM and the Emax came out at 29%.
Taken in the same sequence, the figures for `Nc1nnc(-c2ccccc2O)cc1N1CCC(C(=O)NCC2CCN(CC3CCN(c4ccc5c(c4)C(=O)N(C4CCC(=O)NC4=O)C5=O)CC3)CC2)(c2ccccc2)CC1` (centres unmarked) [Example 100, 1-(3-amino-6-(2-hydroxyphenyl)pyridazin-4-yl)-N-((1-((1-(2-(2,6-dioxopiperidin-3-yl)-1,3-dioxoisoindolin-5-yl)piperidin-4-yl)methyl)piperidin-4-yl)methyl)-4-phenylpiperidine-4-carboxamide] were 104 nM and 30%.
The like results for `Nc1nnc(-c2ccccc2O)cc1N1CCC(C(=O)NCC2CCN(C(=O)CCCN3CCC(c4ccc(OC5CCC(=O)NC5=O)cc4)CC3)CC2)(c2ccccc2)CC1` (centres unmarked) [Example 104, 1-(3-amino-6-(2-hydroxyphenyl)pyridazin-4-yl)-N-((1-(4-(4-(4-((2,6-dioxopiperidin-3-yl)oxy)phenyl)piperidin-1-yl)butanoyl)piperidin-4-yl)methyl)-4-phenylpiperidine-4-carboxamide] were, in that order, 103 nM and 33%.
Taken in the same sequence, the figures for `Nc1nnc(-c2ccccc2O)cc1N1CC2CCC(C1)N2c1cccc(OCCN2CCN(C(=O)CCC3CCN(c4ccc5c(c4)C(=O)N(C4CCC(=O)NC4=O)C5=O)CC3)CC2)c1` (racemic) [Example 14, rac-5-[4-[3-[4-[2-[3-[3-[3-amino-6-(2-hydroxyphenyl)pyridazin-4-yl]-3,8-diazabicyclo[3.2.1]octan-8-yl]phenoxy]ethyl]piperazin-1-yl]-3-oxo-propyl]-1-piperidyl]-2-(2,6-dioxo-3-piperidyl)isoindoline-1,3-dione] were 31 nM and 45%.

These data come from patent publication US20230024096A1, “BIFUNCTIONAL COMPOUNDS FOR THE TREATMENT OF CANCER” (Hoffmann-La Roche Inc., priority 2019, published 2023).
